Laboratory results reported in BindingDB's records for doi:10.1016/S0960-894X(00)80281-4 (1993).

Assay: Tested for inhibition against purified catalytic subunit of protein phosphatase-1 from rabbit skeletal muscle

## C/C=C1/C(=O)N[C@@H](C(=O)O)[C@H](C)C(=O)N[C@@H](C(C)C)C(=O)N[C@@H](/C=C/C(C)=C/[C@H](C)[C@H](Cc2ccccc2)OC)[C@H](C)C(=O)N[C@@H](C(=O)O)CCC(=O)N1C [Motuporin]
  IC50: < 1 nM
